# Structures can show the parent of a compound that is named as a salt.
# How the values were obtained:
# dog gastric contraction = assay: Promoting action of dog gastric contraction; type: in vivo, dog (adult mongrel); settings: Canis lupus familiaris, iv, 0.5 h; i.v.; starved dogs; contraction for 30-minute interval after dose vs. IMC contraction immediately before; read-out: ED50 (dose developing 50% of the IMC contraction)
# Method: 2) Promoting action of dog gastric contraction An implant-type strain-gauge transducer was sutured onto the serosa at the autrum (about 3 cm above pylorus) of adult mongrel dogs, weighed 11 to 15 kg, so as to determine the contraction of the circular muscle. Two weeks or more after the surgery, the gastric contraction was recorded for analysis with a data processing device. […] The dog was put to starvation for about 16 hours. Ten minutes after the completion of one IMC, a test compound was intravenously administered. The contraction for the 30-minute interval thereafter was represented as a percentage (%) to the IMC contraction having occurred immediately before, and the dose developing the 50% contraction was defined as ED50.
# [1] = molecular target: T1, 5-HT3 (serotonin 3) receptor (Rattus norvegicus, UniProt P35563); assay: 5-HT3 antagonistic action (antagonistic action of Bezold-Jarish reflex) in anesthetized rat; type: in vivo; settings: iv, 5 min; i.v.; 5-HT 8 μg/kg i.v.; male Wistar rat under urethane anesthesia; read-out: ID50 (dose with inhibition ratio of 50%, Bezold-Jarish reflex)
# T1 construct: from tissue; host or cells: living anaesthetized male Wistar rat (in vivo; endogenous receptor)
# T1 sequence (P35563 24-483): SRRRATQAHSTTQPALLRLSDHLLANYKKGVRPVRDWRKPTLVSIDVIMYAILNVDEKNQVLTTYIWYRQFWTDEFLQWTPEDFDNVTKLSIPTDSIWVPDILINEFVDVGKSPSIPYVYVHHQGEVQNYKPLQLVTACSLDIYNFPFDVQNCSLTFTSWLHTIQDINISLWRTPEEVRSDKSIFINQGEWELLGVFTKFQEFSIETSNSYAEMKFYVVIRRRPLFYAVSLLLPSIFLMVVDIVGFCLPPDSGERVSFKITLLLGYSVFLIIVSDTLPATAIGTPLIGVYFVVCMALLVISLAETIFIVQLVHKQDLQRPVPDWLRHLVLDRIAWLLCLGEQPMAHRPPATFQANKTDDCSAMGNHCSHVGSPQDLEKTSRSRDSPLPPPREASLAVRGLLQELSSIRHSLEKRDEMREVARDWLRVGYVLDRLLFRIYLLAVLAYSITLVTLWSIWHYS
# Method: 3) 5-HT3 antagonistic action (antagonistic action of Bezold-Jarish reflex)
# According to the following method, the assessment of a compound in terms of the antagonistic action of Bezold-Jarish reflex triggered by 5-HT was carried out in a rat under anesthesia.
# A male Wistar rat, weighed 300 to 400 g, was anesthetized with an intra-parenteral dose of 1.2 g/kg urethane, to monitor the heart rate triggered by electrocardiography. Five minutes after saline was intravenously administered (0.5 ml/kg) to the rat, 5-HT (8 μg/kg) dissolved in saline (0.5 ml/kg) was intravenously administered firstly, to measure the change in […] (A). To the same rat after 10 minutes interval, the test compound was intravenously administered, 5 minutes later 5-HT was administered in the same fashion, to measure the change in heart rate (B). Based on these values, the inhibition ratio of the test compound was calculated by the following formula:
# inhibition ratio=(1-B/A)×100
# Also, the dose with the inhibition ratio of 50% was defined as the ID50 of the test compound.
# [2] = Acute toxicity, oral, mice; type: in vivo, mouse (male ddy); settings: orally 1000 mg/kg; 3 mice per compound; observation 7 days
# Method: For the test of acute toxicity, male ddy mice (body weight; 25 to 30 g, 3 mice for one test compound) were used. Test compound of Example 1 or 2 was orally administered at 1000 mg/kg.
# mouse gastric emptying = assay: Promoting action of mouse gastric emptying; type: in vivo; settings: 1 mg/kg, p.o.; 24-hour starved male ddy mice; control group (distilled water) defined as 100%
# Method: Promoting action of mouse gastric emptying Male, ddy mice (body weight; 20 to 25 g) were used. 24-Hour after starvation 1 mg/kg test compounds dissolved in distilled water were orally administered (10 ml/kg). To the control group distilled water was orally administered (10 ml/kg). One hour later, a 2000 ppm phenol red solution (suspended in aqueous 0.5% carboxymethyl cellulose solution) was administered to each mouse (liquid dose; 0.05 ml/mouse). Then, 15 minutes later, the animals were killed to remove the stomachs. The phenol red retained in the stomachs was developed in 20 ml of a 2.75% trisodium phosphate solution, and analyzed with an absorption photometer at a wave length of 540 nm (A). Immediately after the phenol red solution was administered, the animals were killed to quantitatively determine the phenol red left in the stomachs (B). The difference in the amount of phenol red between A and B (B-A) was designated as gastric emptying. The gastric emptying of the test compounds were shown in Table 4 below, provided that the gastric emptying of the control group was defined as 100%.
SMILES,ED50 (dog gastric contraction),ED50 [1],death (acute toxicity) [2],Promoting Action of Gastric Emptying (%) (mouse gastric emptying)
"COc1cc(N)c(Cl)cc1C(=O)NC1CCN2CCCC1C2 (stereo not drawn) [BRL-24924, (endo)-4-amino-5-chloro-2-methoxy-N-[1-azabicyclo-(3.3.1)-non-4-yl]-benzamide hydrochloride, reference compound]",100 µg/kg,–,–,–
"O=C(NC1CN2CCC1CC2)c1cnc2ccsc2c1O (stereo not shown) [Example 1, N-(1-azabicyclo[2.2.2]oct-3-yl)-7-hydroxythieno[3.2-b]pyridine-6-carboxamide]",10 µg/kg,0.15 µg/kg,no death,147%
"O=C(N[C@H]1CN2CCC1CC2)c1cnc2ccsc2c1O [Example 2, R-N-(1-azabicyclo[2.2.2]oct-3-yl)-7-hydroxythieno[3.2-b]pyridine-6-carboxamide]",5 µg/kg,–,no death,185%
"CN1[C@@H]2CC[C@H]1C[C@@H](NC(=O)c1cn(C)c3ccsc3c1=O)C2 [Example 10, (endo)-N-(8-methyl-8-azabicyclo[3.2.1]oct-3-yl)-4,7-dihydro-4-methyl-7-oxothieno[3.2-b]pyridine-6-carboxamide]",–,–,–,140%
Cc1csc2c(O)c(C(=O)NC3CN4CCC3CC4)cnc12 (stereo not shown) [Example 11],–,–,–,152%
